Measurements: US10376468B2, “Block copolymers and self-assembling nanoparticles formed therefrom” (International Business Machines Corporation, priority 2017, dated 2019)

Tested on: nude BALB/c mice bearing subcutaneous PC-3 tumors
Assay: Biodistribution of DiR-loaded mixed micelles, whole body live imaging
Format: in vivo
Conditions: tail-vein injection
Text: To test the biodistribution of the micelles of the invention, DiR, a near-infrared fluorophore, was encapsulated in MM5D micelles and administered through tail-vein intravenous injection to nude BALB/c mice bearing subcutaneous PC-3 tumors. The in vivo real-time biodistribution of the fluorophore was studied by whole body live imaging at various time points over seven days. An equivalent amount of free DiR was similarly administered to a control group of mice.
The loading of DiR in MM5D micelles was carried out according to the DOX-loading protocol described above. Briefly, polymer (10 mg) and DiR (0.3 mg) were dissolved in DMSO (2 mL) and the mixture pipetted drop-by-drop into 10 mL of deionized water, with sonification for 10 minutes. The solution was dialyzed against deionized water for 48 hours, with the water changed at 3-, 6-, and 24-hours.
PC-3 cells (5 □ 106) suspended in Matrigel (1:1 ratio) were injected subcutaneously (200 μL) into the right flank of male BALB/c mice. Five weeks post-injection, when the tumor reached 5-7 mm in diameter, mice were treated with 8 mg/kg DiR-loaded mixed micelles via tail-vein injection or an equivalent amount of free DiR.
Whole-body fluorescence images were taken using Xenogen IVIS 100 with an ICG filter (excitation 710-760 nm, emission at 810-875 nm) at time points ranging from 30 minutes to 7-days post-administration. Anesthetized animals (n=3 for micelle formulation and n=2 for free DiR) were placed ion one lateral position on a heated plate (37° C.) for image acquisition with an exposure time set to 2 seconds. Tumors and organs were removed from sacrificed mice after 7-days post-administration and then imaged.

[1] = organs removed 7-days post-administration

## CCCCCCCCCCCCCCCCCCN1/C(=C/C=C/C=C/C=C/C2=[N+](CCCCCCCCCCCCCCCCCC)c3ccccc3C2(C)C)C(C)(C)c2ccccc21.[I-] [free DiR]
8 mg/kg or equivalent free DiR
  DiR signal in the subcutaneous tumor at 48-hours post-injection: Little or no signal
  Distribution of DiR fluorescence signal at 24-hours: concentrated strongly in the liver
[1]
  DiR signal in the tumor (FIG. 9, tumors and organs): little or no signal in the tumor
  Tissues with strongest DiR signal (FIG. 9, tumors and organs): strongest signal in the lungs, liver, and spleen
